Patent publication US11117894B2, “Pyridopyrazine compounds and uses thereof” (CITY OF HOPE, priority 2017, dated 2021)

Key:
[1] = test system: A2058 melanoma; experiment: MTS cell viability assay, A2058 melanoma cell line; format: cell-based; conditions: 48 h; for IC50: Homo sapiens, MTS; for Viability % CTL A2058 melanoma (10 μM): Table 4, 10 μM; for Viability (% CTL) at 10 μM A2058 melanoma: Table 2, 10 μM; for Viability % CTL A2058 melanoma: Table 1, screened at 10 μM
Procedure: (§1) MTS assays were performed for cell viability. To determine if novel pyridopyrazine derivatives have antitumor activities, compounds were screened at 10 μM final concentration with A2058 melanoma and DU145 prostate cancer cell lines. Compounds #16 and #17 were selected to determine IC50 values against lung cancer cell lines, including A549, DMS273, H69, H513, H2461, DMS114, H358 and H2596. In this assay, cells (5000/well) were seeded in 96-well plates, incubated overnight at 37° C. in 5% CO2, and exposed to 10 μM of compounds or in a dose-dependent manner for 48 h. After 48 h treatment with compounds, MTS dye (20 μL/well) was added to 96-well plates. Viable cell numbers were determined by tetrazolium conversion to its formazan dye. Absorbance was measured at 490 nm using an automated ELISA plate reader. Dimethyl sulfoxide (DMSO) was used as the vehicle control. Each experiment was conducted in triplicate. IC50 values were determined using CalcuSyn software (Biosoft).

[2] = test system: DU145 prostate cancer; experiment: MTS cell viability assay, DU145 prostate cancer cell line; format: cell-based; conditions: 48 h; for IC50: Homo sapiens, DU-145, DU145 prostate cancer, MTS; for Viability % CTL DU145 prostate (10 μM ): Table 4; for Viability (% CTL) at 10 μM DU145 prostate: Table 2; for Viability % CTL DU145 prostate: Table 1, screened at 10 μM
Procedure: as §1

[3] = test system: H2596 NSCLC; experiment: MTS cell viability assay, H2596 lung cancer cell line; format: cell-based; conditions: 48 h
Procedure: as §1

[4] = test system: H69 small cell lung cancer; experiment: MTS cell viability assay, H69 lung cancer cell line; format: cell-based; conditions: 48 h
Procedure: as §1

[5] = test system: H2461 NSCLC; experiment: MTS cell viability assay, H2461 lung cancer cell line; format: cell-based; conditions: 48 h
Procedure: as §1

[6] = test system: DMS114 small cell lung cancer; experiment: MTS cell viability assay, DMS114 lung cancer cell line; format: cell-based; conditions: Homo sapiens, DMS-114, 48 h
Procedure: as §1

[7] = test system: A549 NSCLC; experiment: MTS cell viability assay, A549 lung cancer cell line; format: cell-based; conditions: Homo sapiens, 48 h
Procedure: as §1

[8] = test system: H513 NSCLC; experiment: MTS cell viability assay, H513 lung cancer cell line; format: cell-based; conditions: 48 h
Procedure: as §1

[9] = test system: DMS273 small cell lung cancer; experiment: MTS cell viability assay, DMS273 lung cancer cell line; format: cell-based; conditions: Homo sapiens, DMS-273, 48 h
Procedure: as §1

[10] = test system: H358 NSCLC; experiment: MTS cell viability assay, H358 lung cancer cell line; format: cell-based; conditions: Homo sapiens, NCI-H358, 48 h
Procedure: as §1

Structure (SMILES)	Viability (% CTL) at 10 μM A2058 melanoma [1]	Viability (% CTL) at 10 μM DU145 prostate [2]	Viability % CTL A2058 melanoma [1]	Viability % CTL DU145 prostate [2]	other results
CSc1ccc(NC(=O)Nc2cc3ncc(Nc4ccccc4)nc3nc2C)cc1 [Compound 18, 1-(6-Methyl-3-(phenylamino)pyrido[2,3-b]pyrazin-7-yl)-3-(4-(methylthio)phenyl)urea]	–	–	–	–	IC50 [1]: 1300 nM; Viability % CTL A2058 melanoma (10 μM) [1]: 7 % CTL; IC50 [2]: 2400 nM; Viability % CTL DU145 prostate (10 μM ) [2]: 6 % CTL
CC(=O)Nc1ccc(Nc2cnc3cc(NC(=O)Nc4cccc(C(F)(F)F)c4)c(C)nc3n2)cc1 [Compound 33, N-(4-((6-Methyl-7-(3-(3-(trifluoromethyl)phenyl)ureido)pyrido[2,3-b]pyrazin-3-yl)amino)phenyl)acetamide]	–	–	–	–	Viability % CTL A2058 melanoma (10 μM) [1]: 109 % CTL; Viability % CTL DU145 prostate (10 μM ) [2]: 55 % CTL
Cc1nc2nc(Nc3ccccc3)cnc2cc1NC(=O)c1ccc(N)cc1 [Compound 13, 4-Amino-N-(6-methyl-3-(phenylamino)pyrido[2,3-b]pyrazin-7-yl)benzamide]	84 % CTL	77 % CTL	–	–	melting point: 265 °C
Cc1nc2nccnc2cc1NC(=O)c1ccccc1 [Compound 06A]	–	–	85 % CTL	94 % CTL	–
CCOC(=O)c1ccc(Nc2cnc3cc(NC(=O)Nc4cccc(C(F)(F)F)c4)c(C)nc3n2)cc1 [Compound 29, Ethyl 4-((6-methyl-7-(3-(3-(trifluoromethyl)phenyl)ureido)pyrido[2,3-b]pyrazin-3-yl)amino)benzoate]	–	–	–	–	IC50 [1]: 6100 nM; Viability % CTL A2058 melanoma (10 μM) [1]: 37 % CTL; IC50 [2]: 12800 nM; Viability % CTL DU145 prostate (10 μM ) [2]: 48 % CTL
Cc1nc2nccnc2cc1NC(=O)CN(C)C [Compound 14A]	–	–	106 % CTL	101 % CTL	–
Cc1nc2nc(Nc3ccccc3)cnc2cc1NC(=O)Nc1ccc(F)c(Cl)c1 [Compound 17, 1-(3-Chloro-4-fluorophenyl)-3-(6-methyl-3-(phenylamino)pyrido[2,3-b]pyrazin-7-yl)urea]	–	–	2 % CTL	0 % CTL	IC50 [3]: 620 nM; IC50 [4]: 510 nM; IC50 [5]: 800 nM; IC50 [6]: 720 nM; IC50 [1]: 1130 nM; IC50 [7]: 920 nM; IC50 [8]: 690 nM; IC50 [2]: 1040 nM; IC50 [9]: 320 nM; IC50 [10]: 1180 nM
Cc1ccc(C(=O)Nc2cc3nccnc3nc2C)cc1 [Compound 08A]	–	–	80 % CTL	96 % CTL	–
Cc1nc2nc(Nc3ccccc3)cnc2cc1NC(=O)Nc1ccccc1 [Compound 15, 1-(6-Methyl-3-(phenylamino)pyrido[2,3-b]pyrazin-7-yl)-3-phenylurea]	5 % CTL	4 % CTL	–	–	–
Cc1nc2nc(Nc3ccccc3)cnc2cc1NC(=O)CN(C)C [Compound 24E]	84 % CTL	102 % CTL	–	–	–
COc1cc(C(=O)Nc2cc3ncc(Nc4ccccc4)nc3nc2C)cc(OC)c1OC [Compound 11, 3,4,5-Trimethoxy-N-(6-methyl-3-(phenylamino)pyrido[2,3-b]pyrazin-7-yl)benzamide]	83 % CTL	105 % CTL	–	–	–
Cc1nc2nccnc2cc1NC(=O)Nc1ccccc1 [Compound 15A]	–	–	73 % CTL	104 % CTL	–
Cc1nc2nc(Nc3ccccc3)cnc2cc1N [Compound 7, 6-Methyl-N^3-phenylpyrido[2,3-b]pyrazine-3,7-diamine]	98 % CTL	76 % CTL	–	–	melting point: > 300 °C (dec.)
Cc1nc2nc(Nc3ccccc3)cnc2cc1NC(=O)c1ccccc1 [Compound 8, N-(6-Methyl-3-(phenylamino)pyrido[2,3-b]pyrazin-7-yl)benzamide]	81 % CTL	90 % CTL	–	–	–
CC(=O)Nc1cccc(Nc2cnc3cc(NC(=O)Nc4cccc(C(F)(F)F)c4)c(C)nc3n2)c1 [Compound 31, N-(3-((6-Methyl-7-(3-(3-(trifluoromethyl)phenyl)ureido)pyrido[2,3-b]pyrazin-3-yl)amino)phenyl)acetamide]	–	–	–	–	Viability % CTL A2058 melanoma (10 μM) [1]: 119 % CTL; Viability % CTL DU145 prostate (10 μM ) [2]: 62 % CTL
Cc1nc2nccnc2cc1NC(=O)c1ccc(Br)cc1F [Compound 10A]	–	–	93 % CTL	95 % CTL	–

Structure (SMILES)	Viability (% CTL) at 10 μM A2058 melanoma [1]	Viability (% CTL) at 10 μM DU145 prostate [2]	Viability % CTL A2058 melanoma [1]	Viability % CTL DU145 prostate [2]	other results
CCOC(=O)c1ccc(Nc2cnc3cc(NC(=O)Nc4ccc(F)c(Cl)c4)c(C)nc3n2)cc1 [Compound 28, Ethyl 4-((7-(3-(3-chloro-4-fluorophenyl)ureido)-6-methylpyrido[2,3-b]pyrazin-3-yl)amino)benzoate]	–	–	–	–	IC50 [1]: 7100 nM; Viability % CTL A2058 melanoma (10 μM) [1]: 35 % CTL; IC50 [2]: 9900 nM; Viability % CTL DU145 prostate (10 μM ) [2]: 40 % CTL
Cc1nc2nc(Nc3ccccc3)cnc2cc1NC(=O)CNc1ccccc1 [Compound 26E]	93 % CTL	85 % CTL	–	–	–
CCN(CC)CCNCC(=O)Nc1cc2ncc(Nc3ccccc3)nc2nc1C [Compound 27E]	85 % CTL	82 % CTL	–	–	–
Cc1nc2nccnc2cc1NC(=O)Nc1ccc(F)c(Cl)c1 [Compound 16A]	–	–	96 % CTL	99 % CTL	–
Cc1nc2nc(Nc3ccccc3)cnc2cc1NC(=O)Nc1cccc(C(F)(F)F)c1 [Compound 16, 1-(6-Methyl-3-(phenylamino)pyrido[2,3-b]pyrazin-7-yl)-3-(3-(trifluoromethyl)phenyl)urea]	–	–	4 % CTL	10 % CTL	IC50 [3]: 1070 nM; IC50 [4]: 980 nM; IC50 [5]: 1710 nM; IC50 [6]: 3150 nM; IC50 [1]: 1290 nM; IC50 [7]: 1540 nM; IC50 [8]: 1260 nM; IC50 [2]: 1720 nM; IC50 [9]: 1090 nM; IC50 [10]: 1970 nM
Cc1ccc(C(=O)Nc2cc3ncc(Nc4ccccc4)nc3nc2C)cc1 [Compound 9, 4-Methyl-N-(6-methyl-3-(phenylamino)pyrido[2,3-b]pyrazin-7-yl)benzamide]	66 % CTL	82 % CTL	–	–	–
Cc1nc2nccnc2cc1NC(=O)c1cccc(C(F)(F)F)c1 [Compound 09A]	–	–	74 % CTL	103 % CTL	–
Cc1nc2nc(Sc3ccccc3)cnc2cc1NC(=O)Nc1cccc(C(F)(F)F)c1 [Compound 17B]	–	–	56 % CTL	101 % CTL	–
Cc1nc2nc(Sc3ccccc3)cnc2cc1NC(=O)Nc1ccc(F)c([N+](=O)[O-])c1 [Compound 20B]	–	–	84 % CTL	89 % CTL	–
Cc1nc2nc(Nc3ccccc3)cnc2cc1NC(=O)c1ccc([N+](=O)[O-])cc1 [Compound 10, N-(6-Methyl-3-(phenylamino)pyrido[2,3-b]pyrazin-7-yl)-4-nitrobenzamide]	86 % CTL	97 % CTL	–	–	–
COc1cc(C(=O)Nc2cc3nccnc3nc2C)cc(OC)c1OC [Compound 07A]	–	–	82 % CTL	122 % CTL	–
Cc1nc2nc(Nc3ccccc3)cnc2cc1NC(=O)c1ccc(NC(=O)Nc2ccccc2)cc1 [Compound 14, N-(6-Methyl-3-(phenylamino)pyrido[2,3-b]pyrazin-7-yl)-4-(3-phenylureido)benzamide]	75 % CTL	80 % CTL	–	–	–
Cc1nc2nc(Sc3ccccc3)cnc2cc1NC(=O)Nc1ccc(F)c(Cl)c1 [Compound 18B]	–	–	83 % CTL	124 % CTL	–
CC(=O)Nc1cccc(Nc2cnc3cc(NC(=O)Nc4ccc(F)c(Cl)c4)c(C)nc3n2)c1 [Compound 30, N-(3-((7-(3-(3-Chloro-4-fluorophenyl)ureido)-6-methylpyrido[2,3-b]pyrazin-3-yl)amino)phenyl)acetamide]	–	–	–	–	Viability % CTL A2058 melanoma (10 μM) [1]: 118 % CTL; Viability % CTL DU145 prostate (10 μM ) [2]: 64 % CTL
Cc1ccc(S(=O)(=O)Nc2cc3nccnc3nc2C)cc1 [Compound 19A]	–	–	59 % CTL	122 % CTL	–
